Data set [1] can be described thus: Transepidermal water loss (TEWL) study of microneedle pore viability with COX inhibitor gels under occlusion. Format: in vivo. The settings on record: gel re-applied daily under occlusion; 5 day study, trial 2. The protocol: Two trials were completed with subject 1 and one trial was completed with subject 2. During the initial trial, subject one was tested for 7 days with only Solaraze® Gel. 100 microneedle arrays were placed on each test site and covered with gel. The gel was then protected with an occlusive backing membrane (3M™ Scotchpak™ 9733 2.05 mil polyester film, St. Paul, Minn.) and secured to the test site with Bioclusive* tape (Johnson and Johnson Medical Ltd, Gargrave, Skipton, UK). Along with gel test sites, control sites with and without microneedle insertions were tested minus gel. The control sites were treated in the same manner with gel minus the 100 microneedle insertions. The initial trial lasted for 7 days followed by a 5 day study.
In trial 2, the same procedure was performed on a different test and control sites using each of the following gel formulations: placebo, Solaraze® Gel, 3% diclofenac, 3% celecoxib, 10% ibuprofen, 10% ketoprofen, and controls with and without microneedle treatment. Each day, the protective covering was removed, areas were blotted 3 times with a Kimwipe® (Kimberly-Clark, Roswell, Ga.) to remove gel and trapped moisture and TEWL readings were made with an RG1 Evaporimeter (cyberDERM, Broomall, Pa.). The treated areas had the formula re-applied and immediately covered to prevent closure of the microneedle created pores.

For data set [2] the following is noted: used in conjunction with microneedles; cited from earlier work.
The conditions of data set [3]: hairless guinea pigs, after microneedle exposure and occlusion; cited from earlier work.

Results on three molecules are retold here after patent publication US20220117884A1, “Methods and Compostitions for Enhancing the Viability of Microneedle Pores” (priority 2007, published 2022).

For `O=C(O)Cc1ccccc1Nc1c(Cl)cccc1Cl` [diclofenac], the “enhancement in pore viability (TEWL), microneedle-treated areas versus control areas” value in data set [1] was “enhanced viability of microneedle pores”.

With `O=C1CC[C@@]2(O)[C@H]3Cc4ccc(O)c5c4[C@@]2(CCN3CC2CC2)[C@H]1O5` [naltrexone], in data set [2], the “time for which steady state naltrexone concentrations remained” value was 48 h and the “time until steady state naltrexone concentrations were achieved” value is “two”.

For the molecule `Cl.Oc1ccc2c3c1O[C@H]1[C@H](O)CC[C@@]4(O)[C@@H](C2)N(CC2CC2)CC[C@]314` [6(3-naltrexol hydrochloride], in data set [3], the “duration of significant enhancement in microneedle pore viability compared to untreated skin” value was 48 h.
